# Test system: 439559-082-T-J2-PDC spheroid viability
# Test: Anticancer human tumor 439559-082-T-J2-PDC patient-derived colon adenocarcinoma cell line growth inhibition [POLQ]
# Details: spheroids with HUVEC and MSC; for IC50: curve of first compound; for viability, T/C: stronger effect = lower value
# Outline: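 Complex spheroid viability model combining PDC tumour cells with endothelial (HUVEC) and MSC stromal cells. Novobiocin, ART-558 or RP6685 were tested singly and in combination with standard and investigational anticancer drugs. Each was titrated in half-log steps from near clinical Cmax, or from 10 microM where Cmax was unknown.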
# [1] = second compound 0.0316 µM, first compound 0.0316 µM
# [2] = second compound 0.0316 µM, first compound 0.1 µM
# [3] = second compound 0.0316 µM, first compound 0.316 µM
# [4] = second compound 0.0316 µM, first compound 1 µM
# [5] = second compound 0.0316 µM, first compound 3.16 µM
# [6] = second compound 0.0316 µM, first compound 10 µM
# [7] = second compound 0.1 µM, first compound 0.0316 µM
# [8] = second compound 0.1 µM, first compound 0.1 µM
# [9] = second compound 0.1 µM, first compound 0.316 µM
# [10] = second compound 0.1 µM, first compound 1 µM
# [11] = second compound 0.1 µM, first compound 3.16 µM
# [12] = second compound 0.1 µM, first compound 10 µM
# [13] = second compound 0.316 µM, first compound 0.0316 µM
# [14] = second compound 0.316 µM, first compound 0.1 µM
# [15] = second compound 0.316 µM, first compound 0.316 µM
# [16] = second compound 0.316 µM, first compound 1 µM
# [17] = second compound 0.316 µM, first compound 3.16 µM
# [18] = second compound 0.316 µM, first compound 10 µM
# [19] = second compound 1 µM, first compound 0.0316 µM
# [20] = second compound 1 µM, first compound 0.1 µM
# [21] = second compound 1 µM, first compound 0.316 µM
# [22] = second compound 1 µM, first compound 1 µM
# [23] = second compound 1 µM, first compound 3.16 µM
# [24] = second compound 1 µM, first compound 10 µM
# [25] = second compound 3.16 µM, first compound 0.0316 µM
# [26] = second compound 3.16 µM, first compound 0.1 µM
# [27] = second compound 3.16 µM, first compound 0.316 µM
# [28] = second compound 3.16 µM, first compound 1 µM
# [29] = second compound 3.16 µM, first compound 3.16 µM
# [30] = second compound 3.16 µM, first compound 10 µM
# [31] = second compound 10 µM, first compound 0.0316 µM
# [32] = second compound 10 µM, first compound 0.1 µM
# [33] = second compound 10 µM, first compound 0.316 µM
# [34] = second compound 10 µM, first compound 1 µM
# [35] = second compound 10 µM, first compound 3.16 µM
# [36] = second compound 10 µM, first compound 10 µM
# 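Note: spheroids exposed to compounds for seven days before readout.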
# 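Throughout, for viability, T/C: 100% = DMSO vehicle control viability.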
smiles,measurement,setting,value
C=CC(=O)N1CCN(c2nc(=O)n(-c3c(C)ccnc3C(C)C)c3nc(-c4c(O)cccc4F)c(F)cc23)C(C)C1 (stereo not drawn) + Cc1cccc(N(C)C(=O)C2C(O)CCN2c2nc(C)cc(C(F)(F)F)c2C#N)c1,IC50,second compound 0.0316 µM,> 10 µM
same,IC50,second compound 0.1 µM,> 10 µM
same,IC50,second compound 0.316 µM,> 10 µM
same,IC50,second compound 1 µM,> 10 µM
same,IC50,second compound 3.16 µM,> 10 µM
same,IC50,second compound 10 µM,> 10 µM
same,"viability, T/C",[1],101%
same,"viability, T/C",[2],93.8%
same,"viability, T/C",[3],95.7%
same,"viability, T/C",[4],108%
same,"viability, T/C",[5],103%
same,"viability, T/C",[6],94.9%
same,"viability, T/C",[7],101%
same,"viability, T/C",[8],103%
same,"viability, T/C",[9],97%
same,"viability, T/C",[10],99.4%
same,"viability, T/C",[11],107%
same,"viability, T/C",[12],100%
same,"viability, T/C",[13],92.7%
same,"viability, T/C",[14],96.9%
same,"viability, T/C",[15],98%
same,"viability, T/C",[16],94.9%
same,"viability, T/C",[17],96%
same,"viability, T/C",[18],96.5%
same,"viability, T/C",[19],107%
same,"viability, T/C",[20],97.8%
same,"viability, T/C",[21],96.5%
same,"viability, T/C",[22],96.5%
same,"viability, T/C",[23],96%
same,"viability, T/C",[24],98%
same,"viability, T/C",[25],101%
same,"viability, T/C",[26],96.6%
same,"viability, T/C",[27],92.4%
same,"viability, T/C",[28],95.6%
same,"viability, T/C",[29],96.9%
same,"viability, T/C",[30],101%
same,"viability, T/C",[31],98.2%
same,"viability, T/C",[32],93.8%
same,"viability, T/C",[33],88%
same,"viability, T/C",[34],83.6%
same,"viability, T/C",[35],97.1%
same,"viability, T/C",[36],90.2%
CCc1cc2c(N3CCc4c(cc(Cn5ccnc5)cc4-c4cn(C)nc4C(F)(F)F)C3=O)ccnc2c(OC)n1 + Cc1cccc(N(C)C(=O)C2C(O)CCN2c2nc(C)cc(C(F)(F)F)c2C#N)c1,IC50,second compound 0.0316 µM,> 10 µM
same,IC50,second compound 0.1 µM,> 10 µM
same,IC50,second compound 0.316 µM,> 10 µM
same,IC50,second compound 1 µM,> 10 µM
same,IC50,second compound 3.16 µM,> 10 µM
same,IC50,second compound 10 µM,> 10 µM
same,"viability, T/C",[1],98%
same,"viability, T/C",[2],95.5%
same,"viability, T/C",[3],101%
same,"viability, T/C",[4],97.1%
same,"viability, T/C",[5],93.1%
same,"viability, T/C",[6],87%
same,"viability, T/C",[7],126%
same,"viability, T/C",[8],96.4%
same,"viability, T/C",[9],90.6%
same,"viability, T/C",[10],92.5%
same,"viability, T/C",[11],95.2%
same,"viability, T/C",[12],89.4%
same,"viability, T/C",[13],105%
same,"viability, T/C",[14],109%
same,"viability, T/C",[15],102%
same,"viability, T/C",[16],98%
same,"viability, T/C",[17],98.8%
same,"viability, T/C",[18],83.7%
same,"viability, T/C",[19],101%
same,"viability, T/C",[20],104%
same,"viability, T/C",[21],85.1%
same,"viability, T/C",[22],93.7%
same,"viability, T/C",[23],93%
same,"viability, T/C",[24],90.2%
same,"viability, T/C",[25],115%
same,"viability, T/C",[26],106%
same,"viability, T/C",[27],83.3%
same,"viability, T/C",[28],92.2%
same,"viability, T/C",[29],103%
same,"viability, T/C",[30],96.1%
same,"viability, T/C",[31],94.9%
same,"viability, T/C",[32],87%
same,"viability, T/C",[33],99.5%
same,"viability, T/C",[34],89.3%
same,"viability, T/C",[35],91.7%
same,"viability, T/C",[36],77.3%
COc1cc2cc(C(=O)CCC(=O)O)sc2cc1OC + Cc1cccc(N(C)C(=O)C2C(O)CCN2c2nc(C)cc(C(F)(F)F)c2C#N)c1,IC50,second compound 0.0316 µM,> 10 µM
same,IC50,second compound 0.1 µM,> 10 µM
same,IC50,second compound 0.316 µM,> 10 µM
same,IC50,second compound 1 µM,> 10 µM
same,IC50,second compound 3.16 µM,> 10 µM
same,IC50,second compound 10 µM,> 10 µM
same,"viability, T/C",[1],104%
same,"viability, T/C",[2],92.7%
same,"viability, T/C",[3],95.1%
same,"viability, T/C",[4],101%
same,"viability, T/C",[5],100%
same,"viability, T/C",[6],84.8%
same,"viability, T/C",[7],107%
same,"viability, T/C",[8],101%
same,"viability, T/C",[9],105%
same,"viability, T/C",[10],99%
same,"viability, T/C",[11],91.7%
same,"viability, T/C",[12],94.2%
same,"viability, T/C",[13],99.5%
same,"viability, T/C",[14],112%
same,"viability, T/C",[15],86.7%
same,"viability, T/C",[16],108%
same,"viability, T/C",[17],106%
same,"viability, T/C",[18],95.9%
same,"viability, T/C",[19],107%
same,"viability, T/C",[20],107%
same,"viability, T/C",[21],96.2%
same,"viability, T/C",[22],96.5%
same,"viability, T/C",[23],104%
same,"viability, T/C",[24],88.5%
same,"viability, T/C",[25],112%
same,"viability, T/C",[26],97.7%
same,"viability, T/C",[27],105%
same,"viability, T/C",[28],87.4%
same,"viability, T/C",[29],110%
same,"viability, T/C",[30],94.9%
same,"viability, T/C",[31],99%
same,"viability, T/C",[32],107%
same,"viability, T/C",[33],101%
same,"viability, T/C",[34],90.9%
same,"viability, T/C",[35],100%
same,"viability, T/C",[36],87.3%
COc1ccc([C@@H](O)c2cc(-c3ncnc4cc(N5CCOCC5)ccc34)c(F)cc2Cl)nn1 + Cc1cccc(N(C)C(=O)C2C(O)CCN2c2nc(C)cc(C(F)(F)F)c2C#N)c1,IC50,second compound 0.0316 µM,> 10 µM
same,IC50,second compound 0.1 µM,> 10 µM
same,IC50,second compound 0.316 µM,> 10 µM
same,IC50,second compound 1 µM,> 10 µM
same,IC50,second compound 3.16 µM,> 10 µM
same,IC50,second compound 10 µM,> 10 µM
same,"viability, T/C",[1],95.2%
same,"viability, T/C",[2],95.5%
same,"viability, T/C",[3],95.9%
same,"viability, T/C",[4],94.9%
same,"viability, T/C",[5],93.4%
same,"viability, T/C",[6],81.5%
same,"viability, T/C",[7],101%
same,"viability, T/C",[8],99.3%
same,"viability, T/C",[9],94.7%
same,"viability, T/C",[10],92.9%
same,"viability, T/C",[11],92%
same,"viability, T/C",[12],80.1%
same,"viability, T/C",[13],105%
same,"viability, T/C",[14],111%
same,"viability, T/C",[15],92.1%
same,"viability, T/C",[16],99.3%
same,"viability, T/C",[17],87.4%
same,"viability, T/C",[18],80.9%
same,"viability, T/C",[19],108%
same,"viability, T/C",[20],101%
same,"viability, T/C",[21],91.6%
same,"viability, T/C",[22],93.4%
same,"viability, T/C",[23],85.5%
same,"viability, T/C",[24],83%
same,"viability, T/C",[25],95.1%
same,"viability, T/C",[26],92.3%
same,"viability, T/C",[27],97.4%
same,"viability, T/C",[28],95.6%
same,"viability, T/C",[29],78.1%
same,"viability, T/C",[30],77.1%
same,"viability, T/C",[31],94.8%
same,"viability, T/C",[32],94.7%
same,"viability, T/C",[33],93%
same,"viability, T/C",[34],83.5%
same,"viability, T/C",[35],83.6%
same,"viability, T/C",[36],78.3%

# From PubChem BioAssay AID1963841 (Molecular Pharmacology Branch, DTP, NCI, 2024)
